According to patent US20230103514A1, “A TOPICAL COMPOSITION COMPRISING AN EXTRACT OF COMBINED HERBS COMPRISING LONGANAE ARILLUS FOR THE SKIN REGENERATION AND THE TREATMENT OR ALLEVIATION OF SKIN WOUND AND THE USE THEREOF” (MEDIHELPLINE CO., LTD, priority 2020, published 2023):

How the values were obtained:
[1] = tested on: TSLP; test: Inhibitory effect on cytokine expression (RT-PCR, TNF alpha-induced HaCaT cells): TSLP; format: cell-based, human; settings: TNFα 50 ng/ml, extract 1 μg/ml, Dex 200 nM, non-induced = 1
Experimental: (§1) In order to determine the anti-inflammatory activity of inventive extract, following inhibition test of cytokine expression using HaCaT cell was performed according to the procedure disclosed in the literature (Jeong et al., 2019, J. Invest. Dermatol., May; 139 (5): pp1098-1109). ?
(§2) HaCaT cell (human epithelial keratinocyte cell, 300493, CLS) was inoculated into DMEM medium containing 10% Fetal bovine serum, 100 units/ml of penicillin, 100 μg/ml of streptomycin (D6429, Sigma-Aldrich Co. Ltd) and was incubated in the incubator (HERA cell 150i, Thermo Fisher Scientific Co. Ltd.) maintaining optimum humidity (85-95%) and 5% CO2 atmosphere.
(§3) For performing gene expression test, the incubated cells were transferred to 12 wells and 50 ng/ml of TNF alpha (RC214-12, Biobasic Co. Ltd) was treated therewith for 1 hour to induce inflammatory response.
(§4) 1 hour after inducing the inflammation, 1 μg/ml of inventive extract prepared in Examples was treated with identical medium and subjected to incubation for 1 hour. After the incubation, RNA (FATRR-001, Favorgen) was extracted from the cell and cDNA was synthesized from the RNA using by cDNA synthesis kit (RRO36A, TAKARA). […]

[2] = tested on: IL-1β; test: Inhibitory effect on cytokine expression (RT-PCR, TNF alpha-induced HaCaT cells): IL-1β; format: cell-based, human; settings: TNFα 50 ng/ml, extract 1 μg/ml, Dex 200 nM, non-induced = 1
Experimental: as §1, §2, §3, §4

## C[C@@H]1C[C@H]2[C@@H]3CCC4=CC(=O)C=C[C@]4(C)[C@@]3(F)[C@@H](O)C[C@]2(C)[C@@]1(O)C(=O)CO [Dex, Dexamethasone]
[1]
  TSLP expression (quantitative RT-PCR): 52.49
[2]
  IL-1β expression (quantitative RT-PCR): 1.081
